What was measured:
[1] = test system: neuronal cell death inducible putative kinase (NIPK) gene; experiment: NIPK gene expression analysis by oligonucleotide microarray after endoplasmic reticulum stress; format: cell-based; settings: rat primary nerve cells, medial expression level taken as 1
Description: Rat primary nerve cells prepared from CD rat (Charles River Japan, Inc.) of TP-17 were suspended in B27-supplemented Neurobasal medium (NB medium: GIBCO) charged in a type I collagen-coated 24-well plate and then plated at 250,000 cells/well, followed by culturing for 3 days.
(i) Tunicamycin (Tnc) was added to the culture cells above in a final concentration of 100 nM, (ii) thapsigargin (Thap) was added to the culture cells above in a final concentration of 2 nM, or (iii) the culture cells described above were cultured in glucose-free B27-suplemented DMEM medium with 2 medium changes and then 2-deoxyglucose (2DG) was added in 3 mM. The total RNA was extracted from the cells 4, 8 and 24 hours, respectively, in accordance with the operating manual using RNeasy Mini kit (Qiagen). Cells added to the respective media (drug-free cells) in place of the drugs above (Tnc, Thap and 2DG) were used for control. Using the oligonucleotide microarray (Rat Genome U34A; Affymetrix Corp.), gene expression analysis was conducted on these materials.
The experimental method was carried out in accordance with the expression analysis technical manual of Affymetrix Corp. Gene expression profiles were compared between the cells stimulated with each drug and the cells with no drug. […] (TABLE 1).

NIPK gene = NIPK gene expression analysis by oligonucleotide microarray after β amyloid stimulation; format: cell-based; settings: rat primary nerve cells, β amyloid 25 μM, 24 hours after stimulation, medial expression level taken as 1
Description: In order to examine if […] stimulation would affect the expression of NIPK gene with enhanced expression by endoplasmic reticulum stress, gene expression analysis was performed as in EXAMPLE 1, using cells stimulated with β amyloid.
Rat primary nerve cells prepared as in EXAMPLE 1 were suspended in N2-supplemented DMEM medium (GIBCO) and then plated at 250,000 cells/well, followed by incubation for 4 days. After the incubation, β amyloid suspended in the medium above in a final concentration of 25 μM was added to the medium. As in EXAMPLE 1, the total RNA was extracted from the cells 4, 8 and 24 hours after the addition and provided for gene analysis. For control, the cells to which the medium described above was added instead of β amyloid were used. Expression of NIPK was more enhanced in the cells stimulated with β, when compared to control (TABLE 2).

Akt1 = target: T1, Akt1 (Homo sapiens, UniProt P31749); experiment: Immunoprecipitation with anti-V5 antibody and western blotting with anti-Akt1 antibody; format: binding; settings: V5-tagged NIPK and Akt1 co-expressed in COS7 cells; control GFP and Akt1
T1 construct: expressed in transfected cells; host or cells: COS7 cells
Description: Using human NIPK cloned into pCDNA3.1-/V5-His TOPO (Invitrogen) vector (EXAMPLE 3) as a template, PCR was carried out with synthetic primers (SEQ ID NO: 3 and SEQ ID NO: 23) and Pfu turbo (Stratagene) as an enzyme under the conditions (1)-(3) to obtain the specific PCR product. • (1) 94° C. for 5 minutes • (2) 94° C. for 30 seconds—60° C. for 30 seconds—72° C. for 1 minute, 25 time • (3) 72° C. for 5 minutes
The PCR product obtained was cloned into pCDNA3.1-/V5-His TOPO (Invitrogen) to transfect Escherichia coli DH5α. The resulting colony was cultured in LB medium to recover V5-tagged human NIPK gene expression vector.
Akt1 gene expression vector was prepared by the following procedures. Using Quick-clone human whole brain cDNA (Clontech) as a template, PCR was carried out with synthetic primers (SEQ ID NO: 24 and SEQ ID NO: 25) and Pfu turbo (Stratagene) as an enzyme under the conditions (1)-(3) below to obtain the specific PCR product. • (1) 94° C. for 5 minutes • (2) 94° C. for 30 seconds—58° C. for 30 seconds—72° C. for 2 minutes, 35 times • (3) 72° C. for 5 minutes […]

T1 sequence (P31749 whole entry): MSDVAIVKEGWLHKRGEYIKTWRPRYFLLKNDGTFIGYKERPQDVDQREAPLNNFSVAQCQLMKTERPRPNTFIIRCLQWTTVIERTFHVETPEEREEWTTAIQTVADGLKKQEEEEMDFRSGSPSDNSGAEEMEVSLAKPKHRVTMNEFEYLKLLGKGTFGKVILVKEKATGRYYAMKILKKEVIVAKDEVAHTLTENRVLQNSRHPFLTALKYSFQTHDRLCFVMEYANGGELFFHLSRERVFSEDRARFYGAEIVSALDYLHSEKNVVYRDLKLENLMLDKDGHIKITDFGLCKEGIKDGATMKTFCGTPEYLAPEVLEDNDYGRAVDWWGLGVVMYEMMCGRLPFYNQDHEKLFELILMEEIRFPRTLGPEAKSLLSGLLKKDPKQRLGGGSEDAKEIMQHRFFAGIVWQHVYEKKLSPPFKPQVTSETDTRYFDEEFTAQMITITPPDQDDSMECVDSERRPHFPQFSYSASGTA

O=CC[C@@H](O)[C@H](O)[C@H](O)CO [2DG, 2-deoxyglucose]
Gene Expression Level ([1]; glucose-free medium, 2-deoxyglucose 3 mM, 4 hours after addition): 0.72 | Gene Expression Level ([1]; glucose-free medium, 2-deoxyglucose 3 mM, 8 hours after addition): 1.79 | Gene Expression Level ([1]; glucose-free medium, 2-deoxyglucose 3 mM, 24 hours after addition): 2.45

C/C=C(/C)C(=O)O[C@H]1C(C)=C2[C@H]([C@@H]1OC(=O)CCCCCCC)[C@@](C)(OC(C)=O)C[C@H](OC(=O)CCC)[C@@]1(O)[C@H]2OC(=O)[C@@]1(C)O [Thap, thapsigargin]
Gene Expression Level ([1]; thapsigargin 2 nM, 4 hours after stimulation): 0.93 | Gene Expression Level ([1]; thapsigargin 2 nM, 8 hours after stimulation): 2.70 | Gene Expression Level ([1]; thapsigargin 2 nM, 24 hours after stimulation): 1.64

Tunicamycin [Tnc]
Gene Expression Level ([1]; tunicamycin 100 nM, 4 hours after stimulation): 0.41 | Gene Expression Level ([1]; tunicamycin 100 nM, 8 hours after stimulation): 1.64 | Gene Expression Level ([1]; tunicamycin 100 nM, 24 hours after stimulation): 1.32

β amyloid
Gene Expression Level (NIPK gene): 0.34

B1: NIPK: human neuronal cell death inducible putative kinase, amino acid sequence SEQ ID NO: 1; V5-tagged, expressed in COS7 cells (protein)
chain: MRATPLAAPAGSLSRKKRLELDDNLDTERPVQKRARSGPQPRLPPCLLPLSPPTAPDRATAVATASRLGPYVLLEPEEGGRAYQALHCPTGTEYTCKVYPVQEALAVLEPYARLPPHKHVARPTEVLAGTQLLYAFFTRTHGDMHSLVRSRHRIPEPEAAVLFRQMATALAHCHQHGLVLRDLKLCRFVFADRERKKLVLENLEDSCVLTGPDDSLWDKHACPAYVGPEILSSRASYSGKAADVWSLGVALFTMLAGHYPFQDSEPVLLFGKIRRGAYALPAGLSAPARCLVRCLLRREPAERLTATGILLHPWLRQDPMPLAPTRSHLWEAAQVVPDGLGLDEAREEEGDREVVLYG
modifications: V5 tag; Homo sapience
notes: V5-tagged, expressed in COS7 cells
binding to Akt1 within the cells (Akt1): bound to Akt1

Source: patent US20060111556A1, “Preventives/remedies for neurodegenerative diseases” (priority 2002, published 2006)
